Assay results reported in US10015966B2, “Fungicidal pyrazole mixtures” (E I DU PONT DE NEMOURS AND COMPANY, priority 2012, dated 2018).
Marks after values point to notes of the source that are not given here.

What was measured:
[1] = tested on: Blumeria graminis f. sp. tritici; assay: Test I: preventive spray on wheat seedlings, wheat powdery mildew, visual disease rating; type: in vivo; conditions: 192 h, 200 ppm test suspension
Protocol: General protocol for preparing test suspensions for Tests A-I: the test compounds were first dissolved in acetone in an amount equal to 3% of the final volume and then suspended at the desired concentration (in ppm) in acetone and purified water (50/50 mix by volume) containing 250 ppm of the surfactant Trem® 014 (polyhydric alcohol esters). The resulting test suspensions were then used in Tests A-I. Each test was conducted in triplicate, and the results were averaged. Spraying a 200 ppm test suspension to the point of run-off on the test plants was the equivalent of a rate of about 800 g/ha. Unless otherwise indicated, the rating values indicate a 200 ppm test suspension was used. (An asterisk “*” next to the rating value indicates a 40 ppm test suspension was used.) The test suspension was sprayed to the point of run-off on wheat seedlings. The following day the seedlings were inoculated with a spore dust of Blumeria graminis f. sp. tritici (also known as Erysiphe graminis f. sp. tritici, the causal agent of wheat powdery mildew) and incubated in a growth chamber at 20° C. for 8 days, after which time visual disease ratings were made. Results for Tests A-I are given in Table A. In the Table, a rating of 100 indicates 100% disease control and a rating of 0 indicates no disease control (relative to the controls). A hyphen (-) indicates no test results.

[2] = Single oral dose pharmacokinetics in rats, plasma and fat analysed by LC/MS (fat:plasma ratio); type: in vivo; conditions: single dose via oral gavage, compared to corresponding compounds with a nonhydrogen substituent at the para position of the phenyl ring connected to R^1 and R^2
Protocol: The pharmacokinetic properties of compounds of Formula 1 can be measured using a wide variety of assay protocols known in the science of pharmacology. In one illustrative method involving a single oral dose, three male and three female rats receive a single dose of a test substance via oral gavage. Approximately 0.25 mL of blood is collected via tail vein immediately prior to dosing, and then at 0.25, 0.5, 1, 2, 4, 8, 12, 24 h and every 24 h thereafter until sacrifice. At sacrifice, fat is also collected to determine the fat:plasma ratio at sacrifice. Blood is collected into tubes that contain ethylenediaminetetracetic acid (EDTA) and centrifuged at 2500×g in order to separate plasma from blood cells. The plasma is then extracted by protein precipitation using, for example, acetonitrile and a protein precipitation plate (e.g., Strata Impact Protein Precipitation Plate, part number CEO-7565 of Phenomenex, Torrance, Calif., U.S.A.) following directions provided for the plate. Alternatively, the plasma is extracted just with acetonitrile, vortexed (i.e. mixed using a vortex mixer), and centrifuged to pellet the proteins. After removal of the proteins, the plasma is analyzed for parent compound and/or metabolites by liquid chromatography-mass spectrometry (LC/MS). The fat is homogenized and extracted by an organic solvent such as acetonitrile. The extract is then analyzed for parent compound and/or metabolites by LC/MS. The plasma pharmacokinetic data is then analyzed using nonlinear modeling software (e.g., WinNonlin™ from Pharsight, Cary, N.C., U.S.A.) to determine half-life of the administered compound in plasma, the time after administration when the maximum plasma concentration is reached (Tmax), the maximum plasma concentration (Cmax) and the area under the plasma concentration curve (AUC). As analysis of fat requires rat sacrifice, fat data is obtained at single time points (i.e. the time of rat sacrifice). However, by using multiple rats sacrificed after different intervals from time of dosing, such parameters as Cmax for fat are determined.

[3] = tested on: Puccinia recondita f. sp. tritici; assay: Test H: preventive spray on wheat seedlings, wheat leaf rust, visual disease rating; type: in vivo; conditions: 200 ppm test suspension
Protocol: General protocol for preparing test suspensions for Tests A-I: the test compounds were first dissolved in acetone in an amount equal to 3% of the final volume and then suspended at the desired concentration (in ppm) in acetone and purified water (50/50 mix by volume) containing 250 ppm of the surfactant Trem® 014 (polyhydric alcohol esters). The resulting test suspensions were then used in Tests A-I. Each test was conducted in triplicate, and the results were averaged. Spraying a 200 ppm test suspension to the point of run-off on the test plants was the equivalent of a rate of about 800 g/ha. Unless otherwise indicated, the rating values indicate a 200 ppm test suspension was used. (An asterisk “*” next to the rating value indicates a 40 ppm test suspension was used.) The test suspension was sprayed to the point of run-off on wheat seedlings. The following day the seedlings were inoculated with a spore suspension of Puccinia recondita f. sp. tritici (the causal agent of wheat leaf rust) and incubated in a saturated atmosphere at 20° C. for 24 h, and then moved to a growth chamber at 20° C. for 6 days, after which time visual disease ratings were made. Results for Tests A-I are given in Table A. In the Table, a rating of 100 indicates 100% disease control and a rating of 0 indicates no disease control (relative to the controls). A hyphen (-) indicates no test results.

[4] = tested on: Botrytis cinerea; assay: Test A: preventive spray on tomato seedlings, tomato Botrytis, visual disease rating; type: in vivo; conditions: 200 ppm test suspension
Protocol: General protocol for preparing test suspensions for Tests A-I: the test compounds were first dissolved in acetone in an amount equal to 3% of the final volume and then suspended at the desired concentration (in ppm) in acetone and purified water (50/50 mix by volume) containing 250 ppm of the surfactant Trem® 014 (polyhydric alcohol esters). The resulting test suspensions were then used in Tests A-I. Each test was conducted in triplicate, and the results were averaged. Spraying a 200 ppm test suspension to the point of run-off on the test plants was the equivalent of a rate of about 800 g/ha. Unless otherwise indicated, the rating values indicate a 200 ppm test suspension was used. (An asterisk “*” next to the rating value indicates a 40 ppm test suspension was used.) The test suspension was sprayed to the point of run-off on tomato seedlings. The following day the seedlings were inoculated with a spore suspension of Botrytis cinerea (the causal agent of tomato Botrytis) and incubated in saturated atmosphere at 20° C. for 48 h, and then moved to a growth chamber at 24° C. for 3 additional days, after which time visual disease ratings were made. Results for Tests A-I are given in Table A. In the Table, a rating of 100 indicates 100% disease control and a rating of 0 indicates no disease control (relative to the controls). A hyphen (-) indicates no test results.

[5] = tested on: Septoria tritici; assay: Test F: preventive spray on wheat seedlings, wheat leaf blotch, visual disease rating; type: in vivo; conditions: Zymoseptoria tritici, 200 ppm test suspension
Protocol: General protocol for preparing test suspensions for Tests A-I: the test compounds were first dissolved in acetone in an amount equal to 3% of the final volume and then suspended at the desired concentration (in ppm) in acetone and purified water (50/50 mix by volume) containing 250 ppm of the surfactant Trem® 014 (polyhydric alcohol esters). The resulting test suspensions were then used in Tests A-I. Each test was conducted in triplicate, and the results were averaged. Spraying a 200 ppm test suspension to the point of run-off on the test plants was the equivalent of a rate of about 800 g/ha. Unless otherwise indicated, the rating values indicate a 200 ppm test suspension was used. (An asterisk “*” next to the rating value indicates a 40 ppm test suspension was used.) The test suspension was sprayed to the point of run-off on wheat seedlings. The following day the seedlings were inoculated with a spore suspension of Septoria tritici (the causal agent of wheat leaf blotch) and incubated in saturated atmosphere at 24° C. for 48 h. and then the seedlings were moved to a growth chamber at 20° C. for 19 additional days, after which time visual disease ratings were made. Results for Tests A-I are given in Table A. In the Table, a rating of 100 indicates 100% disease control and a rating of 0 indicates no disease control (relative to the controls). A hyphen (-) indicates no test results.

[6] = tested on: Septoria nodorum; assay: Test E: preventive spray on wheat seedlings, Septoria glume blotch, visual disease rating; type: in vivo; conditions: asterisked rating: test suspension other than 200 ppm
Protocol: General protocol for preparing test suspensions for Tests A-I: the test compounds were first dissolved in acetone in an amount equal to 3% of the final volume and then suspended at the desired concentration (in ppm) in acetone and purified water (50/50 mix by volume) containing 250 ppm of the surfactant Trem® 014 (polyhydric alcohol esters). The resulting test suspensions were then used in Tests A-I. Each test was conducted in triplicate, and the results were averaged. Spraying a 200 ppm test suspension to the point of run-off on the test plants was the equivalent of a rate of about 800 g/ha. Unless otherwise indicated, the rating values indicate a 200 ppm test suspension was used. (An asterisk “*” next to the rating value indicates a 40 ppm test suspension was used.) The test suspension was sprayed to the point of run-off on wheat seedlings. The following day the seedlings were inoculated with a spore suspension of Septoria nodorum (the causal agent of Septoria glume blotch) and incubated in a saturated atmosphere at 24° C. for 48 h, and then moved to a growth chamber at 20° C. for 9 days, after which time visual disease ratings were made. Results for Tests A-I are given in Table A. In the Table, a rating of 100 indicates 100% disease control and a rating of 0 indicates no disease control (relative to the controls). A hyphen (-) indicates no test results.

melting point [°C] | Structure (SMILES) | pest or weed control at 200 ppm [1] [%] | distribution into fat [2] | pest or weed control at 200 ppm [3] [%] | pest or weed control at 200 ppm [4] [%] | pest or weed control at 200 ppm [5] [%] | Test E rating (% disease control) [6]
 | Cc1nn(C)c(Nc2c(F)cccc2Cl)c1-c1ccc(F)cc1Br [Compound 4, 4-(2-bromo-4-fluorophenyl)-N-(2-chloro-6-fluorophenyl)-1,3-dimethyl-1H-pyrazol-5-amine] | 100 | significantly diminished distribution into fat | 100 | 100 | 100 | 
 | Cc1nn(C)c(Nc2c(F)cccc2Br)c1-c1ccc(F)cc1Cl [Compound 5, N-(2-bromo-6-fluorophenyl)-4-(2-chloro-4-fluorophenyl)-1,3-dimethyl-1H-pyrazol-5-amine] | 100 | significantly diminished distribution into fat | 100 | 100 | 100 | 
154 to 156 | Cc1nn(C)c(Nc2c(F)cccc2Br)c1-c1ccc(F)cc1Br [Compound 7, 4-(2-bromo-4-fluorophenyl)-N-(2-bromo-6-fluorophenyl)-1,3-dimethyl-1H-pyrazol-5-amine] | 100 |  | 100 | 100 | 100 | 
 | Cc1nn(C)c(Nc2ccccc2Cl)c1-c1ccc(F)cc1Br [Compound 8, 4-(2-bromo-4-fluorophenyl)-N-(2-chlorophenyl)-1,3-dimethyl-1H-pyrazol-5-amine] | 100 |  | 99 | 100 | 100 | 
 | Cc1nn(C)c(Nc2ccccc2Br)c1-c1ccc(F)cc1Cl [Compound 9, N-(2-bromophenyl)-4-(2-chloro-4-fluorophenyl)-1,3-dimethyl-1H-pyrazol-5-amine] |  |  |  |  |  | 0* %
 | Cc1nn(C)c(Nc2ccccc2Cl)c1-c1ccc(F)cc1Cl [Compound 10, 4-(2-chloro-4-fluorophenyl)-N-(2-chlorophenyl)-1,3-dimethyl-1H-pyrazol-5-amine] |  |  |  |  |  | 0* %
 | Cc1nn(C)c(Nc2c(F)cccc2F)c1-c1ccc(F)cc1Br [Compound 11, 4-(2-bromo-4-fluorophenyl)-N-(2,6-difluorophenyl)-1,3-dimethyl-1H-pyrazol-5-amine] |  |  |  |  |  | 60* %
